From patent US9051320B1, “Methods for the treatment of metabolic disorders by a selective small molecule autotaxin inhibitor” (PharmAkea, Inc., priority 2014, dated 2015)
Where a name gives a salt, the structure may show the parent alone. Read-outs that look alike come from different tables or passages of the source.

Experiments:
[1] = system: mice fed a high fat diet (HFD); assay: Glucose tolerance test in mice fed a high fat diet; format: in vivo, C57B16/J male mice; details: for baseline glucose (fasting blood glucose): sodium salt; for total blood glucose AUC: after i.p. 1 g/kg glucose
Procedure: C57B16/J male mice were fed a normal diet until 9-10 weeks of age. […] For determination of blood glucose, mice were administered test compound orally in 0.5% methocel once or twice daily for several days prior to the glucose challenge. Compounds were administered as a sodium salt. On the day of the glucose tolerance test (GTT) mice were fasted for 6-8 hours and a last dose of test compound administered orally 1-3 hours before the intraperitoneal (i.p.) injection of 1 g/kg D-glucose (Sigma). Blood from the tail vein was sampled before the glucose load (baseline glucose) and every 15-30 min over the next 120 min after the glucose challenge to monitor blood glucose concentration. Blood glucose was quantified using a glucose meter (Accu-Chek, Roche Diagnostics or AlphaTRAK, Abbott Animal Health) and plotted vs. time. Total blood glucose area under the curve (AUC) after the i.p. glucose challenge was calculated from the time plot using GraphPad Prism6.

[2] = system: mice fed a normal diet or a high fat diet; details: cited from earlier work; for glucose tolerance: injection
human autotaxin (ATX) = target: T1, human autotaxin (ATX) (Homo sapiens, UniProt Q13822); assay: Human autotaxin assay (choline release from LPC, Hep3B conditioned media); format: biochemical; details: LPC 14:0 100 uM
T1 construct: ATX activity is assayed in concentrated conditioned media from Hep3B human hepatocellular carcinoma cells; endogenous in cells; host or cells: Hep3B human hepatocellular carcinoma cells (20-fold concentrated conditioned medium)
Procedure: ATX activity is assayed in concentrated conditioned media from Hep3B human hepatocellular carcinoma cells by measuring the amount of choline released from the substrate, lysophosphatidylcholine (LPC) as it is cleaved to LPA. Conditioned media is collected from confluent Hep3B cells and concentrated 20-fold using Centriprep-30 filter devices (Millipore).

[3] = chronic treatment, mice fed a high fat diet
[4] = 30 mg/kg oral twice daily for two days and once on the day of sampling
[5] = 30 mg/kg oral twice daily for two days prior to sampling and once on the day of sampling

Cc1c(Sc2cccc(C(=O)O)c2F)c2ccc(Cl)c(F)c2n1CC(=O)N1CCC(O)(C(F)(F)F)C1 (single isomer, unassigned) [Compound E]
baseline glucose (fasting blood glucose) ([1]; 30 mg/kg oral once daily for 5 days prior to sampling): decrease

Cc1noc(-c2ccc(CSCCC(=O)O)cc2)c1NC(=O)OC(C)c1ccccc1Cl (centres unmarked) [Ki16425]
capacity of a muscle to oxidize glucose [2, 3]: increases | fasting insulin levels [2, 3]: improves | insulin sensitivity [2, 3]: improves | liver glycogen storage [2, 3]: increases | glucose tolerance ([2]; mice fed a high fat diet): does significantly improve | glucose tolerance ([2]; mice fed a normal diet): does not significantly improve

CCn1cc(-n2c(C3CC3)c(Sc3cccc(C(=O)O)n3)c3ccc(Cl)c(F)c32)cn1 [Compound D, 6-((6-chloro-2-cyclopropyl-1-(1-ethyl-1H-pyrazol-4-yl)-7-fluoro-1H-indol-3-yl)thio)picolinic acid sodium salt]
IC50 (human autotaxin (ATX)): < 0.5 µM | total blood glucose AUC [1, 4]: decrease | baseline glucose (fasting blood glucose) [1, 5]: decrease

CCCn1cc(-n2c(Cl)c(Sc3cccc(C(=O)O)c3F)c3ccc(Cl)c(F)c32)cn1 [Compound C, 3-((2,6-dichloro-7-fluoro-1-(1-propyl-1H-pyrazol-4-yl)-1H-indol-3-yl)thio)-2-fluorobenzoic acid]
total blood glucose AUC ([1]; 15 mg/kg oral twice daily for two days and once on the day of sampling): decrease | baseline glucose (fasting blood glucose) ([1]; 15 mg/kg oral twice daily for two days prior to sampling and once on the day of sampling): decrease

O=C(O)CCN1C(=O)[C@@H]2Cc3c(n(Cc4ccc(F)cc4)c4ccccc34)CN2C1=O [Compound A, (S)-3-(6-(4-fluorobenzyl)-1,3-dioxo-5,6,11,11a-tetrahydro-1H-imidazo [1′,5′:1,6]pyrido[3,4-b]indol-2(3H)-yl)propanoic acid]
total blood glucose AUC [1, 4]: decrease | baseline glucose (fasting blood glucose) [1, 5]: decrease
